# Source: PubChem BioAssay (NCI)
#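 Following 48 hours of exposure in 96-well plates, responses at five concentrations were used to interpolate endpoints linearly. At the GI50, growth is halved. TGI: total growth inhibition.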
# Legend:
# Test in all cases: NCI anticancer screen, dose series, 48 h
# SK-MEL-5 melanoma = tested on: SK-MEL-5 melanoma
# SK-MEL-2 melanoma = tested on: SK-MEL-2 melanoma
# NCI-H522 lung = tested on: NCI-H522 lung
# A498 renal = tested on: A498 renal
# SK-MEL-28 melanoma = tested on: SK-MEL-28 melanoma
# NCI-H226 lung = tested on: NCI-H226 lung
# MCF7 breast = tested on: MCF7 breast
# PC-3 prostate = tested on: PC-3 prostate
# RPMI-8226 leukemia = tested on: RPMI-8226 leukemia
# HCC-2998 colon = tested on: HCC-2998 colon
# RXF 393 renal = tested on: RXF 393 renal
# CCRF-CEM leukemia = tested on: CCRF-CEM leukemia
# SK-OV-3 ovarian = tested on: SK-OV-3 ovarian
# SF-295 CNS = tested on: SF-295 CNS
# SNB-19 CNS = tested on: SNB-19 CNS
# HS 578T breast = tested on: HS 578T breast
# SR leukemia = tested on: SR leukemia
# HCT-15 colon = tested on: HCT-15 colon
# COLO 205 colon = tested on: COLO 205 colon
# OVCAR-8 ovarian = tested on: OVCAR-8 ovarian
# MDA-MB-231 breast = tested on: MDA-MB-231 breast
# MOLT-4 leukemia = tested on: MOLT-4 leukemia
# HL-60(TB) leukemia = tested on: HL-60(TB) leukemia
# TK-10 renal = tested on: TK-10 renal
# M14 melanoma = tested on: M14 melanoma
# HCT-116 colon = tested on: HCT-116 colon
# OVCAR-5 ovarian = tested on: OVCAR-5 ovarian
# CAKI-1 renal = tested on: CAKI-1 renal
# NCI/ADR-RES ovarian = tested on: NCI/ADR-RES ovarian
# NCI-H460 lung = tested on: NCI-H460 lung
# HOP-92 NSCLC = tested on: HOP-92 NSCLC
# K-562 leukemia = tested on: K-562 leukemia
# HT29 colon = tested on: HT29 colon
# U251 CNS = tested on: U251 CNS
# SF-268 CNS = tested on: SF-268 CNS
# UO-31 renal = tested on: UO-31 renal
# LOX IMVI melanoma = tested on: LOX IMVI melanoma
# MALME-3M melanoma = tested on: MALME-3M melanoma
# 786-0 renal = tested on: 786-0 renal
# BT-549 breast = tested on: BT-549 breast
# MDA-MB-435 = tested on: MDA-MB-435
# OVCAR-3 ovarian = tested on: OVCAR-3 ovarian
# UACC-257 melanoma = tested on: UACC-257 melanoma
# KM12 colon = tested on: KM12 colon
# NCI-H23 lung = tested on: NCI-H23 lung
# ACHN renal = tested on: ACHN renal
# UACC-62 melanoma = tested on: UACC-62 melanoma
# OVCAR-4 ovarian = tested on: OVCAR-4 ovarian
# HOP-62 NSCLC = tested on: HOP-62 NSCLC
# SN12C renal = tested on: SN12C renal
# DU-145 prostate = tested on: DU-145 prostate
# IGROV1 ovarian = tested on: IGROV1 ovarian
# EKVX NSCLC = tested on: EKVX NSCLC
# SNB-75 CNS = tested on: SNB-75 CNS
# T-47D breast = tested on: T-47D breast
# SF-539 CNS = tested on: SF-539 CNS
# SW-620 colon = tested on: SW-620 colon
# A549 NSCLC = tested on: A549 NSCLC
smiles,measurement,setting,value
Cc1ccc2c(-c3ccnc(Nc4ccccc4)n3)c(-c3ccc(F)cc3)nn2n1,GI50,SK-MEL-5 melanoma,4.75 µM
same,TGI,SK-MEL-5 melanoma,11.4 µM
same,GI50,SK-MEL-2 melanoma,7.67 µM
same,TGI,SK-MEL-2 melanoma,17.4 µM
same,GI50,NCI-H522 lung,4.34 µM
same,TGI,NCI-H522 lung,13.9 µM
same,GI50,A498 renal,4.78 µM
same,TGI,A498 renal,21.5 µM
same,GI50,SK-MEL-28 melanoma,12.2 µM
same,TGI,SK-MEL-28 melanoma,> 25 µM
same,GI50,NCI-H226 lung,8.23 µM
same,TGI,NCI-H226 lung,24.2 µM
same,GI50,MCF7 breast,7.44 µM
same,TGI,MCF7 breast,> 25 µM
same,GI50,PC-3 prostate,9.97 µM
same,TGI,PC-3 prostate,> 25 µM
same,GI50,RPMI-8226 leukemia,10.5 µM
same,TGI,RPMI-8226 leukemia,> 25 µM
same,GI50,HCC-2998 colon,7.03 µM
same,TGI,HCC-2998 colon,22.6 µM
same,GI50,RXF 393 renal,3.77 µM
same,TGI,RXF 393 renal,> 18.7 µM
same,GI50,CCRF-CEM leukemia,5.81 µM
same,TGI,CCRF-CEM leukemia,> 25 µM
same,GI50,SK-OV-3 ovarian,1.39 µM
same,TGI,SK-OV-3 ovarian,> 25 µM
same,GI50,SF-295 CNS,11.3 µM
same,TGI,SF-295 CNS,> 25 µM
same,GI50,SNB-19 CNS,14.4 µM
same,TGI,SNB-19 CNS,> 25 µM
same,GI50,HS 578T breast,8.51 µM
same,TGI,HS 578T breast,> 25 µM
same,GI50,SR leukemia,11.7 µM
same,TGI,SR leukemia,> 25 µM
same,GI50,HCT-15 colon,5.58 µM
same,TGI,HCT-15 colon,> 25 µM
same,GI50,COLO 205 colon,11.1 µM
same,TGI,COLO 205 colon,> 25 µM
same,GI50,OVCAR-8 ovarian,9.79 µM
same,TGI,OVCAR-8 ovarian,> 25 µM
same,GI50,MDA-MB-231 breast,8.25 µM
same,TGI,MDA-MB-231 breast,> 25 µM
same,GI50,MOLT-4 leukemia,13.4 µM
same,TGI,MOLT-4 leukemia,> 25 µM
same,GI50,HL-60(TB) leukemia,9.56 µM
same,TGI,HL-60(TB) leukemia,> 25 µM
same,GI50,TK-10 renal,1.62 µM
same,TGI,TK-10 renal,10.8 µM
same,GI50,M14 melanoma,9.56 µM
same,TGI,M14 melanoma,> 25 µM
same,GI50,HCT-116 colon,4.48 µM
same,TGI,HCT-116 colon,14.6 µM
same,GI50,OVCAR-5 ovarian,8.25 µM
same,TGI,OVCAR-5 ovarian,> 25 µM
same,GI50,CAKI-1 renal,1.41 µM
same,TGI,CAKI-1 renal,> 25 µM
same,GI50,NCI/ADR-RES ovarian,6.64 µM
same,TGI,NCI/ADR-RES ovarian,> 25 µM
same,GI50,NCI-H460 lung,5.24 µM
same,TGI,NCI-H460 lung,15.1 µM
same,GI50,HOP-92 NSCLC,3.33 µM
same,TGI,HOP-92 NSCLC,> 25 µM
same,GI50,K-562 leukemia,13.5 µM
same,TGI,K-562 leukemia,> 25 µM
same,GI50,HT29 colon,2.34 µM
same,TGI,HT29 colon,> 19.2 µM
same,GI50,U251 CNS,9.8 µM
same,TGI,U251 CNS,> 25 µM
same,GI50,SF-268 CNS,11.1 µM
same,TGI,SF-268 CNS,> 25 µM
same,GI50,UO-31 renal,1.01 µM
same,TGI,UO-31 renal,> 24.1 µM
same,GI50,LOX IMVI melanoma,5.92 µM
same,TGI,LOX IMVI melanoma,> 25 µM
same,GI50,MALME-3M melanoma,13.9 µM
same,TGI,MALME-3M melanoma,> 25 µM
same,GI50,786-0 renal,4.84 µM
same,TGI,786-0 renal,20.8 µM
same,GI50,BT-549 breast,10.7 µM
same,TGI,BT-549 breast,> 25 µM
same,GI50,MDA-MB-435,6.83 µM
same,TGI,MDA-MB-435,> 25 µM
same,GI50,OVCAR-3 ovarian,4.98 µM
same,TGI,OVCAR-3 ovarian,> 22.8 µM
same,GI50,UACC-257 melanoma,6.85 µM
same,TGI,UACC-257 melanoma,15.1 µM
same,GI50,KM12 colon,7.05 µM
same,TGI,KM12 colon,> 25 µM
same,GI50,NCI-H23 lung,8.25 µM
same,TGI,NCI-H23 lung,> 25 µM
same,GI50,ACHN renal,1.26 µM
same,TGI,ACHN renal,> 25 µM
same,GI50,UACC-62 melanoma,7.82 µM
same,TGI,UACC-62 melanoma,> 25 µM
same,GI50,OVCAR-4 ovarian,11.1 µM
same,TGI,OVCAR-4 ovarian,> 25 µM
same,GI50,HOP-62 NSCLC,19.4 µM
same,TGI,HOP-62 NSCLC,> 25 µM
same,GI50,SN12C renal,4.85 µM
same,TGI,SN12C renal,> 25 µM
same,GI50,DU-145 prostate,7.59 µM
same,TGI,DU-145 prostate,> 25 µM
same,GI50,IGROV1 ovarian,1.13 µM
same,TGI,IGROV1 ovarian,16.5 µM
same,GI50,EKVX NSCLC,6.53 µM
same,TGI,EKVX NSCLC,> 25 µM
same,GI50,SNB-75 CNS,> 8.35 µM
same,TGI,SNB-75 CNS,> 25 µM
same,GI50,T-47D breast,7.45 µM
same,TGI,T-47D breast,> 25 µM
same,GI50,SF-539 CNS,6.99 µM
same,TGI,SF-539 CNS,> 19.3 µM
same,GI50,SW-620 colon,8.37 µM
same,TGI,SW-620 colon,> 25 µM
same,GI50,A549 NSCLC,5.28 µM
same,TGI,A549 NSCLC,> 25 µM
